From patent US20090275594A1, “3-HYDRAZONE PIPERAZINYL RIFAMYCIN DERIVATIVES USEFUL AS ANTIMICROBIAL AGENTS” (priority 2008, published 2009)
Values after ≈ are worked out from the molar mass of the structure shown.

Tests used:
Type in all cases: cell-based
Settings in all cases: cation adjusted Mueller-Hinton broth, 35° C., 16-20 hours
[1] = tested on: Staphylococcus aureus OC4172; assay: In vitro antibacterial activity, microdilution broth MIC (NCCLS M7-A4), strain D
Protocol: (§1) Minimum inhibitory concentration (MIC) is an indicator of in vitro antibacterial activity. […] The in vitro antimicrobial activity of representative compounds of the present invention was determined by the microdilution broth method following the test method from the National Committee for Clinical Laboratory Standards (NCCLS). This method is described in the NCCLS Document M7-A4, Vol. 17, No. 2, “Methods for Dilution Antimicrobial Susceptibility Test for Bacteria that Grow Aerobically—Fourth Edition”, which is incorporated herein by reference.
(§2) In this method two-fold serial dilutions of drug in cation adjusted Mueller-Hinton broth were added to wells in microdilution trays. The test organisms were prepared by adjusting the turbidity of actively growing broth cultures so that the final concentration of test organism after it is added to the wells was approximately 5×10^4 CFU/well. Following inoculation of the microdilution trays, the trays were incubated at 35° C. for 16-20 hours and then read. The amount of growth in the wells containing the test compound was compared with the amount of growth in the growth-control wells (no test compound) used in each tray.

[2] = tested on: Staphylococcus aureus ATCC 29213; assay: In vitro antibacterial activity, microdilution broth MIC (NCCLS M7-A4), strain B
Protocol: as §1, §2

[3] = tested on: Methicillin-resistant Staphylococcus aureus OC 3726 COL; assay: In vitro antibacterial activity, microdilution broth MIC (NCCLS M7-A4), strain C
Protocol: as §1, §2

[4] = tested on: Enterococcus faecium OC 3312 vancomycin-resistant; assay: In vitro antibacterial activity, microdilution broth MIC (NCCLS M7-A4), strain A
Protocol: as §1, §2

Row | Compound | MIC (μg/mL) D Strain [1] | MIC (μg/mL) B Strain [2] | MIC (μg/mL) C Strain [3] | MIC (μg/mL) A Strain [4]
1 | COC1C=COC2(C)Oc3c(C)c(O)c4c(O)c(c(C=NN5CCN(Cc6cc(-c7ccc(C)cc7)no6)CC5)c(O)c4c3C2=O)NC(=O)C(C)=CC=CC(C)C(O)C(C)C(O)C(C)C(OC(C)=O)C1C (stereo not drawn) [Compound 8] | 0.5 µg/mL (≈ 0.51 µM) | 0.5 µg/mL (≈ 0.51 µM) | 0.5 µg/mL (≈ 0.51 µM) | 0.5 µg/mL (≈ 0.51 µM)
2 | COC1C=COC2(C)Oc3c(C)c(O)c4c(O)c(c(C=NN5CCN(Cc6cn(-c7ccc(Cl)cc7)nn6)CC5)c(O)c4c3C2=O)NC(=O)C(C)=CC=CC(C)C(O)C(C)C(O)C(C)C(OC(C)=O)C1C (stereo not drawn) [Compound 24] | 0.06 µg/mL (≈ 0.06 µM) | 0.12 µg/mL (≈ 0.12 µM) | ≦0.12 μg/mL | 0.12 µg/mL (≈ 0.12 µM)
3 | COC1C=COC2(C)Oc3c(C)c(O)c4c(O)c(c(C=NN5CCN(Cc6ccc(-c7ccc(Cl)cc7)s6)CC5)c(O)c4c3C2=O)NC(=O)C(C)=CC=CC(C)C(O)C(C)C(O)C(C)C(OC(C)=O)C1C (stereo not drawn) [Compound 21] | 2 µg/mL (≈ 1.97 µM) | 2 µg/mL (≈ 1.97 µM) | 2 µg/mL (≈ 1.97 µM) | 2 µg/mL (≈ 1.97 µM)
4 | COC1C=COC2(C)Oc3c(C)c(O)c4c(O)c(c(C=NN5CCN(Cc6cc(-c7ccc(F)cc7)no6)CC5)c(O)c4c3C2=O)NC(=O)C(C)=CC=CC(C)C(O)C(C)C(O)C(C)C(OC(C)=O)C1C (stereo not drawn) [Compound 5] | 0.12 µg/mL (≈ 0.122 µM) | 0.25 µg/mL (≈ 0.254 µM) | 0.12 µg/mL (≈ 0.122 µM) | 0.25 µg/mL (≈ 0.254 µM)
5 | COC1C=COC2(C)Oc3c(C)c(O)c4c(O)c(c(C=NN5CCN(Cc6cc(CN(C)C)no6)CC5)c(O)c4c3C2=O)NC(=O)C(C)=CC=CC(C)C(O)C(C)C(O)C(C)C(OC(C)=O)C1C (stereo not drawn) [Compound 12] | ≦0.03 μg/mL | 0.06 µg/mL (≈ 0.0634 µM) | ≦0.03 μg/mL | 0.12 µg/mL (≈ 0.127 µM)
6 | COC1C=COC2(C)Oc3c(C)c(O)c4c(O)c(c(C=NN5CCN(CCCc6cc(-c7ccccc7)no6)CC5)c(O)c4c3C2=O)NC(=O)C(C)=CC=CC(C)C(O)C(C)C(O)C(C)C(OC(C)=O)C1C (stereo not drawn) [Compound 27] | 0.5 µg/mL (≈ 0.503 µM) | 0.5 µg/mL (≈ 0.503 µM) | 0.5 µg/mL (≈ 0.503 µM) | 0.5 µg/mL (≈ 0.503 µM)
7 | COC1C=COC2(C)Oc3c(C)c(O)c4c(O)c(c(C=NN5CCN(Cc6ccc(-c7ccc(Cl)cc7)o6)CC5)c(O)c4c3C2=O)NC(=O)C(C)=CC=CC(C)C(O)C(C)C(O)C(C)C(OC(C)=O)C1C (stereo not drawn) [Compound 23] | 0.25 µg/mL (≈ 0.25 µM) | 0.25 µg/mL (≈ 0.25 µM) | 0.25 µg/mL (≈ 0.25 µM) | 0.5 µg/mL (≈ 0.5 µM)
8 | COC1C=COC2(C)Oc3c(C)c(O)c4c(O)c(c(C=NN5CCN(Cc6cc(-c7ccc(F)c(F)c7)no6)CC5)c(O)c4c3C2=O)NC(=O)C(C)=CC=CC(C)C(O)C(C)C(O)C(C)C(OC(C)=O)C1C (stereo not drawn) [Compound 6] | 0.25 µg/mL (≈ 0.249 µM) | 0.5 µg/mL (≈ 0.499 µM) | 0.25 µg/mL (≈ 0.249 µM) | 0.5 µg/mL (≈ 0.499 µM)
9 | COC1C=COC2(C)Oc3c(C)c(O)c4c(O)c(c(C=NN5CCN(Cc6cc(-c7ccc(OCCCN(C)C)cc7)no6)CC5)c(O)c4c3C2=O)NC(=O)C(C)=CC=CC(C)C(O)C(C)C(O)C(C)C(OC(C)=O)C1C (stereo not drawn) [Compound 17] | 0.12 µg/mL (≈ 0.112 µM) | 0.12 µg/mL (≈ 0.112 µM) | 0.12 µg/mL (≈ 0.112 µM) | 0.25 µg/mL (≈ 0.234 µM)
10 | COC1C=COC2(C)Oc3c(C)c(O)c4c(O)c(c(C=NN5CCN(Cc6cc(-c7ccccn7)no6)CC5)c(O)c4c3C2=O)NC(=O)C(C)=CC=CC(C)C(O)C(C)C(O)C(C)C(OC(C)=O)C1C (stereo not drawn) [Compound 13] | ≦0.03 μg/mL | ≦0.03 μg/mL | ≦0.03 μg/mL | 0.06 µg/mL (≈ 0.062 µM)
11 | COC1C=COC2(C)Oc3c(C)c(O)c4c(O)c(c(C=NN5CCN(Cc6cc(-c7ccncc7)no6)CC5)c(O)c4c3C2=O)NC(=O)C(C)=CC=CC(C)C(O)C(C)C(O)C(C)C(OC(C)=O)C1C (stereo not drawn) [Compound 15] | ≦0.03 μg/mL | ≦0.03 μg/mL | ≦0.03 μg/mL | 0.06 µg/mL (≈ 0.062 µM)
12 | COC1C=COC2(C)Oc3c(C)c(O)c4c(O)c(c(C=NN5CCN(Cc6cc(-c7ccc(C(F)(F)F)cc7)no6)CC5)c(O)c4c3C2=O)NC(=O)C(C)=CC=CC(C)C(O)C(C)C(O)C(C)C(OC(C)=O)C1C (stereo not drawn) [Compound 7] | 0.12 µg/mL (≈ 0.116 µM) | 0.5 µg/mL (≈ 0.484 µM) | 0.25 µg/mL (≈ 0.242 µM) | 1 µg/mL (≈ 0.967 µM)
13 | COC1C=COC2(C)Oc3c(C)c(O)c4c(O)c(c(C=NN5CCN(Cc6ccc(-c7ccccc7Cl)o6)CC5)c(O)c4c3C2=O)NC(=O)C(C)=CC=CC(C)C(O)C(C)C(O)C(C)C(OC(C)=O)C1C (stereo not drawn) [Compound 22] | 0.25 µg/mL (≈ 0.25 µM) | 0.5 µg/mL (≈ 0.5 µM) | 0.5 µg/mL (≈ 0.5 µM) | 0.5 µg/mL (≈ 0.5 µM)
14 | COC1C=COC2(C)Oc3c(C)c(O)c4c(O)c(c(C=NN5CCN(Cc6cc(-c7cccnc7)no6)CC5)c(O)c4c3C2=O)NC(=O)C(C)=CC=CC(C)C(O)C(C)C(O)C(C)C(OC(C)=O)C1C (stereo not drawn) [Compound 14] | ≦0.03 μg/mL | ≦0.03 μg/mL | ≦0.03 μg/mL | 0.06 µg/mL (≈ 0.062 µM)
15 | COC1C=COC2(C)Oc3c(C)c(O)c4c(O)c(c(C=NN5CCN(CCc6cc(-c7ccc(Cl)cc7)no6)CC5)c(O)c4c3C2=O)NC(=O)C(C)=CC=CC(C)C(O)C(C)C(O)C(C)C(OC(C)=O)C1C (stereo not drawn) [Compound 26] | 0.25 µg/mL (≈ 0.246 µM) | 0.5 µg/mL (≈ 0.493 µM) | 0.25 µg/mL (≈ 0.246 µM) | 0.5 µg/mL (≈ 0.493 µM)
16 | COC1C=COC2(C)Oc3c(C)c(O)c4c(O)c(c(C=NN5CCN(Cc6cc(CO)no6)CC5)c(O)c4c3C2=O)NC(=O)C(C)=CC=CC(C)C(O)C(C)C(O)C(C)C(OC(C)=O)C1C (stereo not drawn) [Compound 11] | ≦0.03 μg/mL | 0.06 µg/mL (≈ 0.0652 µM) | ≦0.03 μg/mL | 0.25 µg/mL (≈ 0.272 µM)
17 | COC1C=COC2(C)Oc3c(C)c(O)c4c(O)c(c(C=NN5CCN(Cc6cc(-c7cccc(Cl)c7)no6)CC5)c(O)c4c3C2=O)NC(=O)C(C)=CC=CC(C)C(O)C(C)C(O)C(C)C(OC(C)=O)C1C (stereo not drawn) [Compound 3] | 0.5 µg/mL (≈ 0.5 µM) | 0.5 µg/mL (≈ 0.5 µM) | 0.5 µg/mL (≈ 0.5 µM) | 0.5 µg/mL (≈ 0.5 µM)
18 | COC1C=COC2(C)Oc3c(C)c(O)c4c(O)c(c(C=NN5CCN(Cc6cc(-c7ccc(Cl)cc7)no6)CC5)c(O)c4c3C2=O)NC(=O)C(C)=CC=CC(C)C(O)C(C)C(O)C(C)C(OC(C)=O)C1C (stereo not drawn) [Compound 2] | 0.5 µg/mL (≈ 0.5 µM) | 0.5 µg/mL (≈ 0.5 µM) | 0.5 µg/mL (≈ 0.5 µM) | 1 µg/mL (≈ 0.999 µM)
19 | COc1ccc(-c2cc(CN3CCN(N=Cc4c5c(O)c6c(O)c(C)c7c(c6c4O)C(=O)C(C)(OC=CC(OC)C(C)C(OC(C)=O)C(C)C(O)C(C)C(O)C(C)C=CC=C(C)C(=O)N5)O7)CC3)on2)cc1 (stereo not drawn) [Compound 9] | 0.12 µg/mL (≈ 0.12 µM) | 0.25 µg/mL (≈ 0.251 µM) | 0.12 µg/mL (≈ 0.12 µM) | 0.25 µg/mL (≈ 0.251 µM)
20 | COC(=O)c1c(-c2ccc(Cl)cc2)noc1CN1CCN(N=Cc2c3c(O)c4c(O)c(C)c5c(c4c2O)C(=O)C(C)(OC=CC(OC)C(C)C(OC(C)=O)C(C)C(O)C(C)C(O)C(C)C=CC=C(C)C(=O)N3)O5)CC1 (stereo not drawn) [Compound 18] | 0.5 µg/mL (≈ 0.472 µM) | 1 µg/mL (≈ 0.945 µM) | 0.5 µg/mL (≈ 0.472 µM) | 1 µg/mL (≈ 0.945 µM)
21 | COC1C=COC2(C)Oc3c(C)c(O)c4c(O)c(c(C=NN5CCN(Cc6onc(-c7ccc(Cl)cc7)c6C(=O)O)CC5)c(O)c4c3C2=O)NC(=O)C(C)=CC=CC(C)C(O)C(C)C(O)C(C)C(OC(C)=O)C1C (stereo not drawn) [Compound 19] | 0.5 µg/mL (≈ 0.479 µM) | 1 µg/mL (≈ 0.957 µM) | 0.5 µg/mL (≈ 0.479 µM) | 4 µg/mL (≈ 3.83 µM)
22 | COC1C=COC2(C)Oc3c(C)c(O)c4c(O)c(c(C=NN5CCN(Cc6cc(-c7ccccc7)no6)CC5)c(O)c4c3C2=O)NC(=O)C(C)=CC=CC(C)C(O)C(C)C(O)C(C)C(OC(C)=O)C1C (stereo not drawn) [Compound 1] | 0.12 µg/mL (≈ 0.124 µM) | 0.12 µg/mL (≈ 0.124 µM) | 0.12 µg/mL (≈ 0.124 µM) | 0.25 µg/mL (≈ 0.259 µM)
23 | COC1C=COC2(C)Oc3c(C)c(O)c4c(O)c(c(C=NN5CCN(Cc6noc(-c7ccc(Cl)cc7)n6)CC5)c(O)c4c3C2=O)NC(=O)C(C)=CC=CC(C)C(O)C(C)C(O)C(C)C(OC(C)=O)C1C (stereo not drawn) [Compound 25] | 0.25 µg/mL (≈ 0.25 µM) | 0.5 µg/mL (≈ 0.499 µM) | 0.25 µg/mL (≈ 0.25 µM) | 0.5 µg/mL (≈ 0.499 µM)
24 | COC1C=COC2(C)Oc3c(C)c(O)c4c(O)c(c(C=NN5CCN(Cc6cc(C)no6)CC5)c(O)c4c3C2=O)NC(=O)C(C)=CC=CC(C)C(O)C(C)C(O)C(C)C(OC(C)=O)C1C (stereo not drawn) [Compound 10] | ≦0.03 μg/mL | ≦0.03 μg/mL | ≦0.03 μg/mL | 0.06 µg/mL (≈ 0.0664 µM)
